# Active and inactive are the calls of the source. The calls are words filed in the database; no cut-off is given here.
# Experiments:
# HN-6 [1] = assay: Induction of cell morphological changes in human HN-6 cells assessed as decrease in tubulin network around nucleus at 100 nmol/L incubated for 24 hrs by DAPI staining based confocal microscopy analysis; format: functional
# Tubulin = assay: Inhibition of tubulin polymerization (unknown origin) by fluorescence based analysis; format: protein-complex assay, Homo sapiens
# [2] = Induction of apoptosis in human HN-6 cells assessed as late apoptotic cells at 1 micromol/L incubated for 24 hrs by Annexin-V/FITC-PI staining based flow cytometry analysis (reference value: 8.81%); format: functional; details: dose 1 µmol/L, at 1 µM
# [3] = Cytotoxicity against human HFF-1 clls assessed as reduction in cell viability incubated for 72 hrs by CCK-8 assay; format: toxicity, cell-based; details: HFF-1 cells
# [4] = Induction of apoptosis in human HN-6 cells assessed as early apoptotic cells at 0.1 micromol/L incubated for 24 hrs by Annexin-V/FITC-PI staining based flow cytometry analysis (reference value: 2.04%); format: functional; details: dose 0.1 µmol/L, at 0.1 µM
# [5] = Antiproliferative activity against human HN-6 cells assessed as cell growth inhibition incubated for 72 hrs by CCK-8 assay; format: functional, cell-based; details: HN-6, 72 h
# [6] = Induction of apoptosis in human HN-6 cells assessed as early apoptotic cells at 1 micromol/L incubated for 24 hrs by Annexin-V/FITC-PI staining based flow cytometry analysis (reference value: 2.04%); format: functional; details: dose 1 µmol/L, at 1 µM
# [7] = Acute toxicity in Kunming mouse assessed as adverse effect at 1 g/Kg,IG after 15 days of administration; details: in vivo, po, 1000 mg/kg, 360 h, time 15 day
# Mus musculus [8] = assay: Antitumor activity against human HN-6 cells xenografted in mouse serum assessed as reduction on SCCAg level at 80 mg/kg,IG administered daily for 2 weeks by ELISA; format: functional, organism-based
# Tubulin (Homo sapiens) = Tubulin (Homo sapiens) (UniProt P68371+Q9H4B7+P0DPH7+P68366+Q13509+Q71U36+P04350+Q3ZCM7+P07437+P68363+Q9BQE3+Q6PEY2+Q13885+Q9BVA1+Q9BUF5); assay: Inhibition of tubulin polymerization (unknown origin) at 20 micromol/L by fluorescence based analysis; format: protein-complex assay; details: dose 20.0 µmol/L
# Mus musculus [9] = assay: Antitumor activity against human HN-6 cells xenografted in mouse serum assessed as reduction on CYFRA21-1 level at 80 mg/kg,IG administered daily for 2 weeks by ELISA; format: functional, organism-based
# [10] = AUC (0 to t) in rat at 100 mg/kg,IG measured upto 24 hrs by HPLC analysis; format: ADME, organism-based; design: dose 100 mg/kg, time < 24 hrs, route ig; details: in vivo, po
# [11] = Acute toxicity in Kunming mouse assessed as death at 1 g/Kg,IG after 15 days of administration; details: in vivo, po, 1000 mg/kg, 360 h, time 15 day
# [12] = Acute toxicity in IG dosed Kunming mouse assessed as lethal dose after 15 days of administration; format: organism-based; details: in vivo, po, time 15 day
# Mus musculus [13] = assay: Antitumor activity against human HN-6 cells xenografted in mouse serum assessed as reduction on TPS level at 80 mg/kg,IG administered daily for 2 weeks by ELISA; format: functional, organism-based
# [14] = Tmax in rat at 100 mg/kg,IG measured upto 24 hrs by HPLC analysis; format: ADME, organism-based; details: in vivo, po
# HN-6 [15] = assay: Antitumor activity against human HN-6 cells xenografted in mouse assessed as reduction on tumor growth at 80 mg/kg,IG administered daily for 2 weeks; format: functional, organism-based
# [16] = Induction of apoptosis in human HN-6 cells assessed as viable cells at 1 micromol/L incubated for 24 hrs by Annexin-V/FITC-PI staining based flow cytometry analysis (reference value: 97.26%); format: functional; details: HN-6, 24 h, dose 1 µmol/L, read-out: Activity
# [17] = Induction of cell cycle arrest in human HN-6 cells assessed as accumulation of cells at G1 phase at 0.1 micromol/L incubated for 24 hrs by PI staining based flow cytometry analysi (reference value: 45.33%); format: functional; details: dose 0.1 µmol/L, at 0.1 µM
# [18] = Induction of apoptosis in human HN-6 cells assessed as viable cells at 0.1 micromol/L incubated for 24 hrs by Annexin-V/FITC-PI staining based flow cytometry analysis (reference value: 97.26%); format: functional; details: HN-6, 24 h, dose 0.1 µmol/L, read-out: Activity
# [19] = Induction of apoptosis in human HN-6 cells assessed as necrotic cells at 1 micromol/L incubated for 24 hrs by Annexin-V/FITC-PI staining based flow cytometry analysis (reference value: 2.08%); format: functional; details: dose 1 µmol/L, at 1 µM
# HN-6 [20] = assay: Inhibition of cell invasion in human HN-6 cells at 200 to 500 nmol/L incubated for 24 hrs by crystal violet staining based transwell assay; format: functional; details: dose 200-500 nmol/L
# FaDu = assay: Antiproliferative activity against human FaDu cells assessed as cell growth inhibition incubated for 72 hrs by CCK-8 assay; format: functional, cell-based; details: read-out: IC50
# CAL-27 = assay: Antiproliferative activity against human CAL-27 cells assessed as cell growth inhibition incubated for 72 hrs by CCK-8 assay; format: functional, cell-based; details: CAL-27, 72 h
# [21] = Induction of apoptosis in human HN-6 cells assessed as late apoptotic cells at 0.1 micromol/L incubated for 24 hrs by Annexin-V/FITC-PI staining based flow cytometry analysis (reference value: 8.81%); format: functional; details: dose 0.1 µmol/L, at 0.1 µM
# [22] = Acute toxicity in mouse xenografted with human HN-6 cells assessed as body weight loss at 80 mg/kg,IG administered daily for 2 weeks; format: organism-based; details: in vivo, po, 336 h
# [23] = Induction of cell cycle arrest in human HN-6 cells assessed as accumulation of cells at S phase at 0.1 micromol/L incubated for 24 hrs by PI staining based flow cytometry analysi (reference value: 32.12%); format: functional; details: dose 0.1 µmol/L, at 0.1 µM
# [24] = Half life in rat at 100 mg/kg,IG measured upto 24 hrs by HPLC analysis; format: ADME, organism-based; details: in vivo, po
# [25] = Induction of apoptosis in human HN-6 cells assessed as necrotic cells at 0.1 micromol/L incubated for 24 hrs by Annexin-V/FITC-PI staining based flow cytometry analysis (reference value: 2.08%); format: functional; details: dose 0.1 µmol/L, at 0.1 µM
# [26] = Antimigratory activity in human HN-6 cells assessed as inhibition of cell migration at 0.1 micromol/L measured after 24 hrs by scratch wound assay based fluorescence microscope analysis; format: functional; details: HN-6, 24 h, dose 0.1 µmol/L
# [27] = Induction of cell cycle arrest in human HN-6 cells assessed as accumulation of cells at S phase at 0.1 micromol/L incubated for 24 hrs by PI staining based flow cytometry analysi (reference value: 31.19%); format: functional; details: dose 0.1 µmol/L, at 0.1 µM
# [28] = Cmax in rat at 100 mg/kg,IG measured upto 24 hrs by HPLC analysis; format: ADME, organism-based; design: dose 100 mg/kg, time < 24 hrs, route ig; details: in vivo, po
# [29] = Acute toxicity in Kunming mouse assessed as weakness at 631 mg/kg,IG after 6 hrs of administration; format: organism-based; details: in vivo, po
# [30] = Acute toxicity in Kunming mouse assessed as weakness at 1 g/Kg,IG after 2 hrs of administration; details: in vivo, po, 1000 mg/kg
# [31] = Acute toxicity in Kunming mouse assessed as change in body weight at 158 mg/kg,IG after 15 days of administration; format: organism-based; details: in vivo, po, 360 h, time 15 day
# [32] = Acute toxicity in Kunming mouse assessed as lethargy at 631 mg/kg,IG after 6 hrs of administration; format: organism-based; details: in vivo, po
# [33] = Acute toxicity in Kunming mouse assessed as adverse effect at 251 mg/kg,IG after 15 days of administration; format: organism-based; details: in vivo, po, 360 h, time 15 day
# [34] = Acute toxicity in Kunming mouse assessed as change in body weight at 251 mg/kg,IG after 15 days of administration; format: organism-based; details: in vivo, po, 360 h, time 15 day
# [35] = Acute toxicity in Kunming mouse assessed as death at 398 mg/kg,IG after 15 days of administration; format: organism-based; details: in vivo, po, 360 h, time 15 day
# [36] = Acute toxicity in Kunming mouse assessed as lethargy at 1 g/Kg,IG after 2 hrs of administration; details: in vivo, po, 1000 mg/kg
# [37] = Acute toxicity in Kunming mouse assessed as hypothermia at 631 mg/kg,IG after 6 hrs of administration; format: organism-based; details: in vivo, po
# [38] = Acute toxicity in Kunming mouse assessed as hypothermia at 1 g/Kg,IG after 2 hrs of administration; details: in vivo, po, 1000 mg/kg
# [39] = Acute toxicity in Kunming mouse assessed as adverse effect at 158 mg/kg,IG after 15 days of administration; format: organism-based; details: in vivo, po, 360 h, time 15 day
structure (smiles),measurement,setting,value
C=CCOC(=O)Nc1nc2ccc(CCCC)cc2[nH]1,Activity,HN-6 [1],Active
same,IC50,Tubulin,4410 nM
same,Activity,[2],21.43%
same,IC50 at 72 h,[3],> 20000 nM
same,Activity,[4],4.98%
same,IC50,[5],46.9 nM
same,Activity,[6],12.28%
same,Activity,[7],Non-Toxic
same,Activity,Mus musculus [8],Active
same,inhibition,Tubulin (Homo sapiens),86.6%
same,Activity,Mus musculus [9],Active
same,AUC(0-t) at 24 h,[10],386 ng·h/mL
same,Activity,[11],Non-Toxic
same,LD50 at 360 h,[12],> 1000 mg/kg
same,Activity,Mus musculus [13],Active
same,Tmax,[14],4 h
same,Activity,HN-6 [15],Active
same,viability at 1 µM,[16],60.8%
same,Activity,[17],14.51%
same,viability at 0.1 µM,[18],79.3%
same,Activity,[19],5.48%
same,inhibition,HN-6 [20],Active
same,IC50,FaDu,126 nM
same,IC50,CAL-27,118 nM
same,Activity,[21],12.09%
same,Activity,[22],Non-Toxic
same,Activity,[23],19.14%
same,half-life,[24],2.19 h
same,Activity,[25],3.77%
same,inhibition at 0.1 µM,[26],8.1%
same,Activity,[27],64.65%
same,Cmax,[28],83 ng/mL
CCCCc1ccc2nc(NC(=O)OC(C)C)[nH]c2c1,Activity,HN-6 [1],Active
same,IC50,Tubulin,4040 nM
same,Activity,[29],Toxic
same,Activity,[2],24.75%
same,IC50 at 72 h,[3],> 20000 nM
same,Activity,[4],11.53%
same,IC50,[5],34.9 nM
same,Activity,[30],Toxic
same,Activity,[6],16.44%
same,Activity,Mus musculus [8],Active
same,inhibition,Tubulin (Homo sapiens),98.9%
same,Activity,Mus musculus [9],Active
same,AUC(0-t) at 24 h,[10],542 ng·h/mL
same,Activity,[31],Non-Toxic
same,Activity,[32],Toxic
same,LD50 at 360 h,[12],341 mg/kg
same,Activity,[33],Non-Toxic
same,Activity,[34],Non-Toxic
same,Activity,Mus musculus [13],Active
same,Tmax,[14],2 h
same,Activity,HN-6 [15],Active
same,Activity,[35],Toxic
same,viability at 1 µM,[16],52.6%
same,Activity,[17],14.26%
same,viability at 0.1 µM,[18],62.9%
same,Activity,[19],6.23%
same,inhibition,HN-6 [20],Active
same,Activity,[36],Toxic
same,IC50,FaDu,126 nM
same,Activity,[37],Toxic
same,IC50,CAL-27,93.1 nM
same,Activity,[21],20.59%
same,Activity,[38],Toxic
same,Activity,[22],Non-Toxic
same,Activity,[23],16.16%
same,Activity,[39],Non-Toxic
same,half-life,[24],1.95 h
same,Activity,[25],5.01%
same,inhibition at 0.1 µM,[26],6.27%
same,Activity,[27],68.08%
same,Cmax,[28],169 ng/mL

# Reference: ChEMBL document CHEMBL5113404, “Design, synthesis and biological evaluation of new parbendazole derivatives for the treatment of HNSCC” (Eur J Med Chem, 2022)
